In patent US8853359B2, “Endokinin C/D-derived peptides” (University of Miyazaki, priority 2009, dated 2014):

How the values were obtained:
[1] = test system: carrageenan-induced thermal hyperalgesia; experiment: withdrawal latency to noxious thermal stimulation after carrageenan, intrathecal pre-administration of peptide; format: in vivo, rat; conditions: 10^-3M (10 nmol/10 μl) peptide intrathecal; 2% carrageenan 4 hours later; FIG. 9B
Method: In Example 6, 10^−3M (10 nmol/10 μl) D-EKC/D (3), (5), or (7), Spantide I, or saline (10 μl) was administered to intrathecally catheterized rats via catheters. Four hours later, 100 μl of 2% carrageenan (2 mg/100 μl) was subcutaneously administered to rat plantar.
Meanwhile, noxious thermal stimulation was applied to paw plantar using infrared rays at 10-minute intervals after carrageenan administration. The time (latency period) required for withdrawal response to take place was measured. The latency period before untreated rats following noxious thermal stimulation was designated as the control latency period.

[2] = test system: SP-induced thermal hyperalgesia; experiment: SP-induced thermal hyperalgesia (withdrawal latency) after intrathecal pre-administration of peptide; format: in vivo, rat; conditions: 10^-3M (10 nmol/10 μl) peptide intrathecal, FIG. 7
Description: In this test, the effects of intrathecal pre-administration with D-EKC/D (1), (2), and (3) on the induction of thermal hyperalgesia following intrathecal administration of SP were confirmed using as an index thermal hyperalgesia, which is one type of pain-related behavior. The effects can be evaluated based on withdrawal latency period, which is the time required for withdrawal response to take place after application of noxious thermal stimulation to plantar using infrared rays.
In Example 4, 10^−3M (10 nmol/10 μl) D-EKC/D (1), (2), or (3) was administered to intrathecally catheterized rats via catheters, intrathecal administration of 10^−6M (10 pmol/10 μl) SP was performed at 4 hours and at 8 hours after administration of D-EKC/D, the presence or the absence of hyperalgesia following intrathecal administration of SP was evaluated based on the time (latency period) required for withdrawal response to take place, the latency period following SP administration in rats pretreated with D-EKC/D and the latency period resulting from administration of SP alone were compared, and thus the effects of preadministration of D-EKC/D (1), (2), and (3) were evaluated.

## Ala-Tyr-Gln-Leu-Glu-His-Thr-Phe-Gln-DTrp-Leu-Leu-NH2 (AYQLEHTFQXLL; HELM PEPTIDE1{A.Y.Q.L.E.H.T.F.Q.[dW].L.L.[am]}$$$$V2.0; N-terminus assumed; SMILES CC(C)C[C@H](NC(=O)[C@H](CC(C)C)NC(=O)[C@@H](Cc1c[nH]c2ccccc12)NC(=O)[C@H](CCC(N)=O)NC(=O)[C@H](Cc1ccccc1)NC(=O)[C@@H](NC(=O)[C@H](Cc1c[nH]cn1)NC(=O)[C@H](CCC(=O)O)NC(=O)[C@H](CC(C)C)NC(=O)[C@H](CCC(N)=O)NC(=O)[C@H](Cc1ccc(O)cc1)NC(=O)[C@H](C)N)[C@@H](C)O)C(N)=O) [D-EKC/D (3)]
[1]
  withdrawal time (latency period): significant increases
[2]; 10^-6M SP 4 hours later, saline about 20 seconds, SP about 13 seconds
  effect on latency period following administration of SP: significantly attenuated
[2]; 10^-6M SP 8 hours later
  effect on latency period following administration of SP: significant attenuation
